US5272136A, “5-0-α-D-Glucopyranosyl-L-ascorbic acid, and its preparation and uses” (priority 1991, dated 1993)

Columns and labels:
[1] = Hydrolysis under a relatively-high acidic- and temperature-condition; assay type: physicochemical; conditions: relative to the substances X and Y; pH 1.7, 100° C.
Procedure: Thus, we removed 2-O-α-D-glucopyranosyl-L-ascorbic acid by using this hydrolysis.
The method was as follows: The second mother liquor was adjusted to give a concentration of 25%, adjusted to pH 1.7 by the addition of hydrochloric acid, and allowed to predominantly hydrolyze 2-O-α-D-glucopyranosyl-L-ascorbic acid at 100° C. Thereafter, the resultant solution was cooled and fed to a column packed with an anion exchange resin (OH^- -form) to adsorb the substances X and Y thereon, and the column was washed with water and fed with 0.5N hydrochloric acid to obtain a solution containing the substances X and Y.

physchem = assay type: physicochemical; conditions: for Stability, residual percentage: 0 min, 70 uM; for remaining at 21 h, 70 µM / remaining at 0.5 h, 70 µM / remaining at 1 h, 70 µM / remaining at 0.25 h, 70 µM: aqueous solution
Procedure: (h) Stability: The stability of the substance X was compared with L-ascorbic acid as a control. Each specimen was adjusted to give a concentration of 70 μM and to pH 7.0 or pH 2.0, and the resultant each solution was placed in a cell for an absorption spectrophotometer. The cell was set to the absorption spectrophotometer and kept at 20° C., followed by determining at a prescribed time interval an absorbance at 265 nm with the solution of pH 7.0 and an absorbance at 243 nm with the solution of pH 2.0, and comparing the residual percentage (%) of each specimen.

Solubility in solvents = assay type: physicochemical
[2] = test system: enzyme of a small intestinal membrane; assay: Hydrolysis by enzyme of small intestinal membrane; assay type: in vitro ADME; conditions: method of Okada et al.
[3] = Coloring reaction / direct reducing activity; assay type: physicochemical
7 week-old dd mice = assay: Acute toxicity test, oral; assay type: in vivo; conditions: up to 5 g of the specimen, a higher dose was difficult
From the text: A high-purity 5-O-α-D-glucopyranosyl-L-ascorbic acid, prepared by the method in Experiment 1, was orally administered to 7 week-old dd mice for acute toxicity test. As a result, no mouse died when administered with up to 5 g of the specimen, and a higher dose was difficult.

## O=C1O[C@H]([C@@H](O)CO)C(O)=C1O[C@H]1O[C@H](CO)[C@@H](O)[C@H](O)[C@H]1O [2-O-α-D-glucopyranosyl-L-ascorbic acid]
[1]
  Hydrolysis under relatively-high acidic- and temperature-condition: more readily hydrolyzed than the substances X and Y

## O=C1O[C@H]([C@@H](O)CO)C(O)=C1O [AsA, L-ascorbic acid]
physchem; pH 2
  Stability, residual percentage: 100%
  remaining at 21 h, 70 µM: 10%
physchem; pH 7
  Stability, residual percentage: 100%
  remaining at 0.5 h, 70 µM: 20%
  remaining at 1 h, 70 µM: 8%
  remaining at 21 h, 70 µM: 2%

## O=C1O[C@H]([C@H](CO)O[C@H]2O[C@H](CO)[C@@H](O)[C@H](O)[C@H]2O)C(O)=C1O [substance X, 5-O-α-D-glucopyranosyl-L-ascorbic acid]
Solubility in solvents; 0.1M acetic acid
  Solubility in 0.1M acetic acid: readily soluble
Solubility in solvents; 0.1N sodium hydroxide
  Solubility in 0.1N sodium hydroxide: readily soluble
Solubility in solvents; benzene
  Solubility in benzene: insoluble
Solubility in solvents; chloroform
  Solubility in chloroform: insoluble
Solubility in solvents; ethanol
  Solubility in ethanol: slightly soluble
Solubility in solvents; ether
  Solubility in ether: insoluble
Solubility in solvents; methanol
  Solubility in methanol: slightly soluble
Solubility in solvents; water
  Solubility in water: readily soluble
[2]
  Hydrolysis by enzyme of small intestinal membrane: readily hydrolyzed
[3]
  Reducing activity (decoloring of 2,6-dichlorophenolindophenol): exhibits a reducing activity, and decolors 2,6-dichlorophenolindophenol
7 week-old dd mice
  Acute toxicity, mortality: no mouse died
physchem
  Stability compared with L-ascorbic acid: stabler than L-ascorbic acid
physchem; pH 2
  Stability, residual percentage: 100%
  remaining at 0.25 h, 70 µM: 99%
  remaining at 0.5 h, 70 µM: 98%
  remaining at 1 h, 70 µM: 90%
  remaining at 21 h, 70 µM: 50%
physchem; pH 7
  Stability, residual percentage: 100%
  remaining at 0.25 h, 70 µM: 58%
  remaining at 0.5 h, 70 µM: 35%
  remaining at 1 h, 70 µM: 16%
  remaining at 21 h, 70 µM: 6%

## O=C1O[C@H]([C@@H](O)CO[C@H]2O[C@H](CO)[C@@H](O)[C@H](O)[C@H]2O)C(O)=C1O [substance Y, 6-O-α-D-glucopyranosyl-L-ascorbic acid, reference compound]
[2]
  Hydrolysis by enzyme of small intestinal membrane: not substantially hydrolyzed
